From PubChem BioAssay AID1996
Values after ≈ are worked out from the molar mass of the structure shown.

Conditions: buffer; pH 7.4; 200.0 µM

`O=C(NN1CCOCC1)c1ccco1` and `CC(=O)N1CCN(c2ccccc2NC(=O)c2ccco2)CC1` cannot be ordered by solubility kinetic: over 29.4 µg/mL for the first, over 47 µg/mL for the second.

`O=C(Nc1ccccc1)C1CCCCN1S(=O)(=O)c1ccccc1` (centres undefined) and `COc1ccc(S(=O)(=O)N(Cc2ccccc2)c2ccccc2C(=O)O)cc1` cannot be ordered by solubility kinetic: over 51.7 µg/mL for the first, 53.7 µg/mL (≈ 135 µM) for the second.

`Cc1csc(NC(=O)CS(=O)(=O)c2ccccc2)n1` and `Cn1cccc1C(=O)NCc1ccccn1` cannot be ordered by solubility kinetic: 44.3 µg/mL (≈ 149 µM) for the first, over 32.3 µg/mL for the second.

`CC1CCN(C(=S)NC(=O)c2cccs2)CC1` and `O=C(NC(=S)N1CCCC1)c1ccccc1` cannot be ordered by solubility kinetic: over 40.3 µg/mL for the first, over 35.1 µg/mL for the second.

Going from `COC(=O)CSc1nc(NC#N)nc(NC(C)(C)C)n1` to `COc1ccc(C(=O)O)cc1S(=O)(=O)NC(C)(C)C`, the solubility kinetic rises from 36.7 µg/mL (≈ 124 µM) to over 43.1 µg/mL.

`CCN(CC(=O)NCc1cccs1)C(=O)c1cccc(Cl)c1` and `N#CCCN(Cc1cccs1)C(=O)Nc1ccc(F)cc1` cannot be ordered by solubility kinetic: over 50.5 µg/mL for the first, over 45.5 µg/mL for the second.

Going from `CC(C)C(=O)N=c1sc2cccc(F)c2n1C` to `CN1CCC(N(C)C(=O)c2ccccc2F)CC1.Cl`, the solubility kinetic rises from 13.2 µg/mL (≈ 52.3 µM) to 42.9 µg/mL (3.2-fold).

Compared with `O=C(/C=C/c1ccccc1)Nc1cccnc1Oc1ccccc1F`, `O=Cc1cn(CCOc2ccccc2F)c2ccccc12` is 4.7-fold higher in solubility kinetic: 2.7 µg/mL (≈ 8.08 µM) for the first, 12.8 µg/mL (≈ 45.2 µM) for the second.

`O=C(c1c(F)cccc1F)N(Cc1ccccc1)Cc1ccccc1` and `COc1ccc(/C(N)=N/OC(=O)CCc2ccccc2)cc1` are within 1.5-fold of each other in solubility kinetic: 8.4 µg/mL (≈ 24.9 µM) for the first, 9.9 µg/mL (≈ 33.2 µM) for the second.

First: CCCCOc1ccc(C(=O)OCC(=O)N2CCCCCC2)cc1
Second: NC(=O)Nc1ccc(C(=O)OCC(=O)N2CCCC2=O)cc1
The solubility kinetic of the first is lower: 8.4 µg/mL (≈ 25.2 µM) for the first, over 45.8 µg/mL for the second.

`Cc1ccccc1SCC(=O)NCCCn1ccnc1` and `Cl.Cn1cccc1CNCC(O)c1ccccc1` (centres undefined) cannot be ordered by solubility kinetic: 42.9 µg/mL (≈ 148 µM) for the first, over 40 µg/mL for the second.

Going from `CC(C)C(=O)O/N=C(\N)c1ccc(Oc2ccc(Cl)cc2)c([N+](=O)[O-])c1` to `Cc1nc(/C(N)=N/OC(=O)c2ccc(Cl)cc2)c(C(F)(F)F)o1`, the solubility kinetic rises from 3.5 µg/mL (≈ 9.26 µM) to 17 µg/mL (≈ 48.9 µM) (4.9-fold).

`CC(C)Cn1c(N)c(C=O)c(=O)[nH]c1=O` and `Cn1c(=O)c2c(ncn2CCO)n(C)c1=O` cannot be ordered by solubility kinetic: over 31.7 µg/mL for the first, over 33.6 µg/mL for the second.

First: NS(=O)(=O)c1ccc(Nc2c([N+](=O)[O-])cncc2[N+](=O)[O-])cc1
Second: Cc1cc(Nc2cccc([N+](=O)[O-])c2)c2cccc(C)c2n1.Cl
The solubility kinetic of the first is 9.2-fold higher: 50.4 µg/mL (≈ 149 µM) for the first, 5.5 µg/mL for the second.

Compared with `O=C(Nc1ccc(Cl)cc1Cl)c1ccc(Br)o1`, `CCCn1ccc(O)c(Cc2ccc(Cl)cc2)c1=O` is higher in solubility kinetic: under 0.7 µg/mL for the first, 7.3 µg/mL (≈ 26.3 µM) for the second.

`COC(=O)c1ccc(C2SCC(=O)N2Cc2ccccc2)cc1` (centres undefined) and `COc1ccc(CCN2C(=O)CC(C(N)=O)SC2=Nc2ccccc2)cc1` (centres undefined) are within 1.5-fold of each other in solubility kinetic: 37.3 µg/mL (≈ 114 µM) for the first, 44.5 µg/mL (≈ 116 µM) for the second.

Going from `COc1cc(CN=C(C)c2c(O)n(C3CCCCC3)c(=O)[nH]c2=O)cc(OC)c1` to `COc1cccc(NC(=O)CN2C(=O)C(=O)N(C3CCCC3)C2=O)c1`, the solubility kinetic rises from under 0.3 µg/mL to over 51.8 µg/mL.

`CCCN(C(=O)Cc1coc2cc(OC)ccc12)C1CCS(=O)(=O)C1` (centres undefined) and `N#Cc1ccccc1OCC(=O)OCC(=O)NC1CCS(=O)(=O)C1` (centres undefined) cannot be ordered by solubility kinetic: over 54.8 µg/mL for the first, over 52.9 µg/mL for the second.

Compared with `O=C1Cc2cc(S(=O)(=O)N3CCNCC3)ccc2N1`, `COc1ccc(NC(=O)COC(=O)CCc2ccc(S(=O)(=O)N3CCOCC3)cc2)cc1Cl` is 2-fold lower in solubility kinetic: 39.1 µg/mL (≈ 139 µM) for the first, 19.6 µg/mL (≈ 39.4 µM) for the second.

Compared with `O=C(NC(=S)NC1C2CC3CC(C2)CC1C3)c1ccccc1` (centres undefined), `CC(C)(C)OC(=O)N1CCC(CNC(=O)Nc2ccccc2)CC1` is higher in solubility kinetic: under 0.3 µg/mL for the first, over 50 µg/mL for the second.

First: Cc1cccc(N2CCN(C(=O)c3cc4cc(F)ccc4[nH]3)CC2)c1C
Second: CCN1CCN(c2nc(N(C)c3ccccc3)nc(N)c2[N+](=O)[O-])CC1
The solubility kinetic of the first is 82-fold lower: 0.6 µg/mL (≈ 1.71 µM) for the first, 49.3 µg/mL (≈ 138 µM) for the second.

First: CN(C)c1nc(Nc2ccc(F)cc2)nc(Oc2ccc(F)cc2)n1
Second: COc1ccc(N(Cc2cc(=O)[nH]c3ccccc23)C(C)=O)cc1
The solubility kinetic of the first is lower: under 0.1 µg/mL for the first, over 48.4 µg/mL for the second.

Compared with `COc1ccc(OCC2NCCc3cc(OC)c(OC)cc32)cc1` (centres undefined), `CC(=O)Oc1ccc2c(=O)oc(-c3ccccc3)nc2c1` is 14-fold lower in solubility kinetic: 42 µg/mL (≈ 128 µM) for the first, 3.1 µg/mL (≈ 11 µM) for the second.

First: CN1C(=S)SC(/[N+]([O-])=C\c2ccccc2F)C1(C)C (centres undefined)
Second: Cc1ccccc1Cn1c(=O)n(C)c(=O)c2sccc21
The solubility kinetic of the first is higher: over 44.8 µg/mL for the first, 5.9 µg/mL (≈ 20.6 µM) for the second.

Going from `O=C(Cn1nc(Cl)nc1Cl)c1ccccc1` to `O=c1c2cc(-c3ccccc3)sc2nc2n1CCC2`, the solubility kinetic falls from over 38.4 µg/mL to 1.5 µg/mL (≈ 5.59 µM).

`CCN1CCN(C(=O)C23CCC(C)(C(=O)C2Br)C3(C)C)CC1` (centres undefined) and `CC(C)c1ccc(NC(=S)N2CCN(C)CC2)cc1` cannot be ordered by solubility kinetic: over 55.7 µg/mL for the first, over 41.6 µg/mL for the second.

First: CCCC1=C(C(=O)OCC)C(c2ccco2)C(C#N)=C(N)O1 (centres undefined)
Second: CCOC(=O)Cc1csc(CC(N)=O)[nH+]1.[Cl-]
The solubility kinetic of the first is lower: 30.3 µg/mL (≈ 100 µM) for the first, over 39.7 µg/mL for the second.

Going from `O=C(CN1CCC(NC(=O)C2CC2)CC1)Nc1ccccc1[N+](=O)[O-]` to `COc1ccc(NC(=O)COC(=O)C23CC4CC(CC(O)(C4)C2)C3)cc1Cl`, the solubility kinetic rises from 46.6 µg/mL (≈ 135 µM) to over 59.1 µg/mL.

`OCC1(Cc2ccccc2)CCN(Cc2ccccn2)CC1` and `O=C(CSc1nncs1)NCc1ccc(F)cc1` cannot be ordered by solubility kinetic: over 44.5 µg/mL for the first, over 42.5 µg/mL for the second.

With `NC12NC(=O)C3(O)C4C5CC(C6C5C3C61)C42` (centres undefined) the solubility kinetic was over 32.7 µg/mL.
